Data published in patent publication US7064120B2, “Tricyclic pyridyl carboxamides and derivatives thereof tocolytic oxytocin receptor antagonists” (Wyeth, priority 2001, dated 2006).

Target: T1, human vasopressin V1a receptor subtype (Homo sapiens, UniProt P37288)
T1 construct: host or cells: CHO cells, stably transfected (pZeoSV vector for the Thibonnier line)
Assay: Vasopressin binding in CHO cell membranes expressing human vasopressin V1a subtype receptors ([3H]Manning ligand radioligand binding)
Settings: 100 nM
How it was run: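 Radioligand displacement: [3H]Manning ligand, added as 8 nM stock, binds human V1a receptor in CHO-cell membranes (25–50 μg/well), pH 7.4 Tris buffer with protease inhibitors, 60 min room temperature. Bound counts collected by filter harvesting; values are percent inhibition at stated concentration or nanomolar IC50.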

T1 sequence (P37288 whole entry): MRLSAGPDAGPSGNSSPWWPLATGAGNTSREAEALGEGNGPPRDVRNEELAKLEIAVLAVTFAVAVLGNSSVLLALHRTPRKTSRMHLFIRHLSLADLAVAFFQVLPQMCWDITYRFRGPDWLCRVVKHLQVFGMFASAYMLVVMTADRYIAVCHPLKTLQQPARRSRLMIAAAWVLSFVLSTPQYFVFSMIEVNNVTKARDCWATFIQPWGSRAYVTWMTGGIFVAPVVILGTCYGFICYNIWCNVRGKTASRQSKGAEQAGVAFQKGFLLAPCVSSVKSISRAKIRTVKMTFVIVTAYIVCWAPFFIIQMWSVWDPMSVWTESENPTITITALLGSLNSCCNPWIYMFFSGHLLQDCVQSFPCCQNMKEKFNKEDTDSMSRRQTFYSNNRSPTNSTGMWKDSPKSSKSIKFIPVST

| inhibition at 0.1 µM | SMILES | V1a % inhibition @ 100 nM |
| --- | --- | --- |
| 8% | COc1ccccc1-c1ccc(C(=O)N2Cc3ccc(C(=O)N4CCCCC4c4cccnc4)n3Cc3ccccc32)cc1C (stereo not shown) [Example 138, {10-[(2′-Methoxy-2-methyl-[1,1′-biphenyl]-4-yl)carbonyl]-10,11-dihydro-5H-pyrrolo[2,1-c][1,4]benzodiazepin-3-yl}[2-(3-pyridinyl)-1-piperidinyl]methanone] | – |
| 1% | Cc1ccccc1-c1ccc(C(=O)N2Cc3ccc(C(=O)N4CCN(c5ccncc5)CC4)n3Cc3ccccc32)cc1 [Example 117, {10-[(2′-Methyl-[1,1′-biphenyl]-4-yl)carbonyl]-10,11-dihydro-5H-pyrrolo[2,1-c][1,4]benzodiazepin-3-yl}[4-(4-pyridinyl)-1-piperazinyl]methanone] | – |
| 9% | COc1ccccc1-c1ccc(C(=O)N2Cc3ccc(C(=O)N4CCN(c5ccncc5)CC4)n3Cc3ccccc32)cc1OC [Example 122, {10-[(2,2′-Dimethoxy-[1,1′-biphenyl]-4-yl)carbonyl]-10,11-dihydro-5H-pyrrolo[2,1-c][1,4]benzodiazepin-3-yl}[4-(4-pyridinyl)-1-piperazinyl]methanone] | – |
| -3% | COc1cc(-c2ccccc2C)c(Cl)cc1C(=O)N1Cc2ccc(C(=O)N3CCCCC3c3cccnc3)n2Cc2ccccc21 (stereo not shown) [Example 140, {10-[(6-Chloro-3-methoxy-2′-methyl-[1,1′-biphenyl]-4-yl)carbonyl]-10,11-dihydro-5H-pyrrolo[2,1-c][1,4]benzodiazepin-3-yl}[2-(3-pyridinyl)-1-piperidinyl]methanone] | – |
| 11% | COc1cc(C(=O)N2Cc3ccc(C(=O)NCc4cccnc4)n3Cc3ccccc32)ccc1-c1cccc2ccccc12 [Example 44, 10-[3-Methoxy-4-(naphthalen-1-yl)benzoyl]-N-(3-pyridinylmethyl)-10,11-dihydro-5H-pyrrolo[2,1-c][1,4]benzodiazepine-3-carboxamide] | – |
| -1% | Cc1cc(C(=O)N2Cc3ccc(C(=O)N(C)CCc4ccncc4)n3Cc3ccccc32)ccc1-c1ccccc1C(F)(F)F [Example 137, N-Methyl-10-{[2-methyl-2′-trifluoromethyl-[1,1′-biphenyl]-4-yl]carbonyl}-N-[2-(4-pyridinyl)ethyl]-10,11-dihydro-5H-pyrrolo[2,1-c][1,4]benzodiazepine-3-carboxamide] | – |
| -5% | Cc1cc(C(=O)N2Cc3ccc(C(=O)N4CCCCC4c4cccnc4)n3Cc3ccccc32)ccc1-c1ccccc1C(F)(F)F (stereo not shown) [Example 142, (10-{[2-Methyl-2′-trifluoromethyl-[1,1′-biphenyl]-4-yl]carbonyl}-10,11-dihydro-5H-pyrrolo[2,1-c][1,4]benzodiazepin-3-yl)[2-(3-pyridinyl)-1-piperidinyl]methanone] | – |
| 83% | COc1cc(C(=O)N2Cc3ccc(C(=O)N(C)CCc4ccncc4)n3Cc3ccccc32)ccc1-c1ccccc1C [Example 131, 10-[(2-Methoxy-2′-methyl-[1,1′-biphenyl]-4-yl)carbonyl]-N-methyl-N-[2-(4-pyridinyl)ethyl]-10,11-dihydro-5H-pyrrolo[2,1-c][1,4]benzodiazepine-3-carboxamide] | – |
| 68% | COc1cc(C(=O)N2Cc3ccc(C(=O)N(C)Cc4cccnc4)n3Cc3ccccc32)ccc1-c1ccccc1C [Example 106, 10-[(2-Methoxy-2′-methyl-[1,1′-biphenyl]-4-yl)carbonyl]-N-methyl-N-(3-pyridinylmethyl)-10,11-dihydro-5H-pyrrolo[2,1-c][1,4]benzodiazepine-3-carboxamide] | – |

Second part, the compound before the results:

| SMILES | inhibition at 0.1 µM | V1a % inhibition @ 100 nM |
| --- | --- | --- |
| COc1ccccc1-c1ccc(C(=O)N2Cc3ccc(C(=O)NCc4ccccn4)n3Cc3ccccc32)cc1 [Example 26, 10-[(2′-Methoxy-[1,1′-biphenyl]-4-yl)carbonyl]-N-(2-pyridinylmethyl)-10,11-dihydro-5H-pyrrolo[2,1-c][1,4]benzodiazepine-3-carboxamide] | 17% | – |
| COc1cc(C(=O)N2Cc3ccc(C(=O)N4CCN(c5ccncc5)CC4)n3Cc3ccccc32)ccc1-c1ccccc1C [Example 118] | – | 62% |
| COc1cccc(-c2cc(OC)c(C(=O)N3Cc4ccc(C(=O)NCCc5ccccn5)n4Cc4ccccc43)cc2Cl)c1 [Example 56, 10-[(6-Chloro-3,3′-dimethoxy-[1,1′-biphenyl]-4-yl)carbonyl]-N-[2-(2-pyridinyl)ethyl]-10,11-dihydro-5H-pyrrolo[2,1-c][1,4]benzodiazepine-3-carboxamide] | -11% | – |
| COc1cccc(-c2ccc(C(=O)N3Cc4ccc(C(=O)NCCc5ccccn5)n4Cc4ccccc43)cc2OC)c1 [Example 59, 10-[(2,3′-Dimethoxy-[1,1′-biphenyl]-4-yl)carbonyl]-N-[2-(2-pyridinyl)ethyl]-10,11-dihydro-5H-pyrrolo[2,1-c][1,4]benzodiazepine-3-carboxamide] | 12% | – |
| COc1cccc(-c2cc(OC)c(C(=O)N3Cc4ccc(C(=O)N5CCN(c6ccncc6)CC5)n4Cc4ccccc43)cc2Cl)c1 [Example 120, {10-[(6-Chloro-3,3′-dimethoxy-[1,1′-biphenyl]-4-yl)carbonyl]-10,11-dihydro-5H-pyrrolo[2,1-c][1,4]benzodiazepin-3-yl}[4-(4-pyridinyl)-1-piperazinyl]methanone] | 6% | – |
| COc1cc(-c2ccccc2C)c(Cl)cc1C(=O)N1Cc2ccc(C(=O)NCc3ccccn3)n2Cc2ccccc21 [Example 29, 10-[(6-Chloro-3-methoxy-2′-methyl-[1,1′-biphenyl]-4-yl)carbonyl]-N-(2-pyridinylmethyl)-10,11-dihydro-5H-pyrrolo[2,1-c][1,4]benzodiazepine-3-carboxamide] | 0% | – |
| COc1cc(C(=O)N2Cc3ccc(C(=O)N(C)CCc4ccccn4)n3Cc3ccccc32)ccc1-n1c(C)ccc1C [Example 144, 10-[4-(2,5-Dimethyl-1H-pyrrol-1-yl)-3-methoxybenzoyl]-N-methyl-N-[2-(pyridin-2-yl)ethyl]-10,11-dihydro-5H-pyrrolo[2,1-c][1,4]benzodiazepine-3-carboxamide] | 11% | – |
| COc1cc(C(=O)N2Cc3ccc(C(=O)N(C)Cc4cccnc4)n3Cc3ccccc32)ccc1-c1cccc2ccccc12 [Example 109, 10-[3-Methoxy-4-(naphthalen-1-yl)benzoyl]-N-methyl-N-(3-pyridinylmethyl)-10,11-dihydro-5H-pyrrolo[2,1-c][1,4]benzodiazepine-3-carboxamide] | 7% | – |
| COc1cc(C(=O)N2Cc3ccc(C(=O)N(C)CCc4ccncc4)n3Cc3ccccc32)ccc1-c1cccc2ccccc12 [Example 134, 10-[3-Methoxy-4-(naphthalen-1-yl)benzoyl]-N-methyl-N-[2-(4-pyridinyl)ethyl]-10,11-dihydro-5H-pyrrolo[2,1-c][1,4]benzodiazepine-3-carboxamide] | 30% | – |
| COc1cc(C(=O)N2Cc3ccc(C(=O)NCc4ccccn4)n3Cc3ccccc32)ccc1-c1cccc2ccccc12 [Example 31, 10-[3-Methoxy-4-(naphthalen-1-yl)benzoyl]-N-(2-pyridinylmethyl)-10,11-dihydro-5H-pyrrolo[2,1-c][1,4]benzodiazepine-3-carboxamide] | 6% | – |
